# Measured values taken from article PMC7580763, “Novel insights on saccharin- and acesulfame-based carbonic anhydrase inhibitors: design, synthesis, modelling investigations and biological activity evaluation” (Journal of Enzyme Inhibition and Medicinal Chemistry, 2020).
# Values joined by “and” are separate entries in the source; they are usually repeats but may differ in a detail not shown here. Equal entries are not always repeated. Where two headings read alike, the source gives them in different places.
# What was measured:
# Type in all cases: biochemical
# hCA I = hCA I (Homo sapiens, UniProt P00915); test: CA inhibition, stopped-flow CO2 hydrase assay, hCA I
# Experimental: (§1) An Applied Photophysics stopped-flow instrument has been used for assaying the CA-catalyzed CO2 hydration activity. […] The initial rates of the CA-catalysed CO2 hydration reaction were followed for a period of 10−100 s. The CO2 concentrations ranged from 1.7 to 17 mM for the determination of the kinetic parameters and inhibition constants. […] The uncatalyzed rates were determined in the same manner and subtracted from the total observed ones. Stock solutions of each inhibitor (0.1 mM) were prepared in distilled − deionized water and dilutions up to 0.01 nM were done thereafter with distilled − deionized water. Inhibitor and enzyme solutions were preincubated together for 15 min at room temperature prior to assay to allow for the formation of the E−I complex. The inhibition constants were obtained by nonlinear least-squares methods using the Cheng-Prusoff equation and represent the mean from at least three different determinations. […] Human CA isoforms were recombinant enzymes obtained in-house as reported earlier.
# hCA IX = hCA IX (Homo sapiens, UniProt Q16790); test: CA inhibition, stopped-flow CO2 hydrase assay, hCA IX
# Experimental: as §1
# hCA XII = hCA XII (Homo sapiens, UniProt O43570); test: CA inhibition, stopped-flow CO2 hydrase assay, hCA XII
# Experimental: as §1
# hCA II = hCA II (Homo sapiens, UniProt P00918); test: CA inhibition, stopped-flow CO2 hydrase assay, hCA II
# Experimental: as §1
# [1] = Table 1, saccharin-based derivatives, recombinant enzyme, 15 min preincubation, pH 7.5
# [2] = Table 2, acesulfame-based derivatives, mean from 3 different assays, errors ± 5–10%
# Sequence of hCA I (P00915 whole entry): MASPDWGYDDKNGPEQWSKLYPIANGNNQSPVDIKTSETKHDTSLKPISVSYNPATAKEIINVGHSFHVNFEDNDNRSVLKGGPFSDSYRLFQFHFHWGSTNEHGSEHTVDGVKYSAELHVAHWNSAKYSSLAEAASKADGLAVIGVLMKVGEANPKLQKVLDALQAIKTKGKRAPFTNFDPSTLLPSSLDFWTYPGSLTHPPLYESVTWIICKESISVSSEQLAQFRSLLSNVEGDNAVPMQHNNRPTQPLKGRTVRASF
# Sequence of hCA XII (O43570 25-354): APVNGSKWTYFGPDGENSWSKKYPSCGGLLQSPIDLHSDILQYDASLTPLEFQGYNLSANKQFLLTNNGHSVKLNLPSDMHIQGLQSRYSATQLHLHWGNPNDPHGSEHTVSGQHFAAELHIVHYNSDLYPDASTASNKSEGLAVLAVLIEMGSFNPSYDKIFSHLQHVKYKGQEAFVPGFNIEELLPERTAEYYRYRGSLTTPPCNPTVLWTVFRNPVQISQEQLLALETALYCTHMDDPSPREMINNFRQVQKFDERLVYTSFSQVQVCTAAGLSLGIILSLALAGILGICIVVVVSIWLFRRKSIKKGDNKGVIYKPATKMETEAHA
SMILES,Ki (hCA I; [1]),Ki (hCA IX; [1]),Ki (hCA XII; [1]),Ki (hCA II; [1]),Ki (hCA I; [2]),Ki (hCA IX; [2]),Ki (hCA XII; [2]),Ki (hCA II; [2]),also measured
Cc1ccc(-n2cc(CN3C(=O)c4ccccc4S3(=O)=O)nn2)cc1 [Compound 44],> 1000 µM,670 µM,> 1000 µM,> 1000 µM,,,,,
O=C1c2ccccc2S(=O)(=O)N1Cc1cn(Cc2ccccc2)nn1 [Compound 46],> 100 µM,20.9 µM,,> 100 µM,,,,,Ki (hCA IX): 20.9 µM and 7.4 µM; Ki (hCA XII): 7.4 µM
Cc1ccc(-n2cc(CNS(=O)(=O)c3ccccc3C(=O)O)nn2)cc1 [Compound 48],> 1000 µM,> 1000 µM,> 1000 µM,> 1000 µM,,,,,"inhibitory activity against hCA I, in words (hCA I): ineffective; inhibitory activity against hCA IX, in words (hCA IX): ineffective; inhibitory activity against hCA XII, in words (hCA XII): ineffective; inhibitory activity against hCA II, in words (hCA II): ineffective"
O=C(O)c1ccccc1S(=O)(=O)NCc1cn(Cc2ccccc2)nn1 [Compound 49],> 100 µM,1.9 µM,4.5 µM,> 100 µM,,,,,
CC(C)=CCN1C(=O)C=C(C)OS1(=O)=O [Compound 50],,,,,> 1000 µM,0.33 µM,0.24 µM,> 1000 µM,
CC1=CC(OCc2cn(-c3ccccc3)nn2)=NS(=O)(=O)O1 [Compound 55],,,,,> 1000 µM,> 1000 µM,> 1000 µM,> 1000 µM,
CC1=CC(OCc2cn(-c3ccc(Cl)cc3)nn2)=NS(=O)(=O)O1 [Compound 57],,,,,> 1000 µM,> 1000 µM,> 1000 µM,> 1000 µM,
CC1=CC(OCc2cn(-c3ccc(Br)cc3)nn2)=NS(=O)(=O)O1 [Compound 58],,,,,> 1000 µM,> 1000 µM,> 1000 µM,> 1000 µM,
COc1ccc(-n2cc(COC3=NS(=O)(=O)OC(C)=C3)nn2)cc1 [Compound 59],,,,,> 1000 µM,> 1000 µM,> 1000 µM,> 1000 µM,
CC1=CC(OCc2cn(Cc3ccccc3)nn2)=NS(=O)(=O)O1 [Compound 60],,,,,> 100 µM,1.1 µM,> 100 µM,> 100 µM,

# Second part, led by results:
Ki (hCA I; [1]),Ki (hCA IX; [1]),Ki (hCA XII; [1]),Ki (hCA II; [1]),Ki (hCA I; [2]),Ki (hCA IX; [2]),Ki (hCA XII; [2]),Ki (hCA II; [2]),SMILES,also measured
> 1000 µM,> 1000 µM,> 1000 µM,> 1000 µM,,,,,O=C1c2ccccc2S(=O)(=O)N1Cc1cn(-c2ccccc2)nn1 [Compound 41],Ki (hCA I): > 1000 µM; Ki (hCA IX): > 1000 µM; Ki (hCA XII): > 1000 µM; Ki (hCA II): > 1000 µM
> 1000 µM,759 µM,> 1000 µM,80.8 µM,,,,,O=C1c2ccccc2S(=O)(=O)N1Cc1cn(-c2ccc(Cl)cc2)nn1 [Compound 42],
> 1000 µM,538 µM,> 1000 µM,76.4 µM,,,,,O=C1c2ccccc2S(=O)(=O)N1Cc1cn(-c2ccc(Br)cc2)nn1 [Compound 43],
> 1000 µM,666 µM,> 1000 µM,> 1000 µM,,,,,COc1ccc(-n2cc(CN3C(=O)c4ccccc4S3(=O)=O)nn2)cc1 [Compound 45],
> 1000 µM,927 µM,> 1000 µM,> 1000 µM,,,,,O=C(O)c1ccccc1S(=O)(=O)NCc1cn(-c2ccccc2)nn1 [Compound 47],"inhibitory activity against hCA I, in words (hCA I): ineffective; inhibitory activity against hCA IX, in words (hCA IX): ineffective; inhibitory activity against hCA XII, in words (hCA XII): ineffective; inhibitory activity against hCA II, in words (hCA II): ineffective"
,,,,> 1000 µM,2.7 µM,0.27 µM,> 1000 µM,CC1=CC(=O)N(Cc2ccccc2)S(=O)(=O)O1 [Compound 51],
,,,,> 1000 µM,0.47 µM,2 µM,> 1000 µM,CC1=CC(=O)N(Cc2ccc(Cl)c(Cl)c2)S(=O)(=O)O1 [Compound 52],
,,,,> 1000 µM,> 1000 µM,> 1000 µM,> 1000 µM,CC1=CC(=O)N(Cc2cn(-c3ccccc3)nn2)S(=O)(=O)O1 [Compound 53],
,,,,> 1000 µM,> 1000 µM,> 1000 µM,> 1000 µM,CC1=CC(=O)N(Cc2cn(-c3ccc(Cl)cc3)nn2)S(=O)(=O)O1 [Compound 54],
,,,,> 1000 µM,> 1000 µM,> 1000 µM,> 1000 µM,CC1=CC(OCc2cn(-c3ccc(C)cc3)nn2)=NS(=O)(=O)O1 [Compound 56],
